Data as given in patent publication US20130150325A1, “3-(Fluorovinyl)pyrazoles and their use” (BAYER INTELLECTUAL PROPERTY GMBH, priority 2011, published 2013).

Tested on: HCT 116 cells transfected with a luciferase reporter under the control of an HIF-responsive sequence
Assay: HIF-luciferase assay
Assay type: cell-based
Settings: Homo sapiens; HCT 116 HIF-luciferase reporter cells, hypoxia chamber (1% O2), 24 h; in some cases means of up to four individual determinations
Procedure: HCT 116 cells were transfected in a stable manner with a plasmid which contained a luciferase reporter under the control of an HIF-responsive sequence. These cells were sown in microtitre plates [20 000 cells/cavity in RPMI 1640 medium with 10% foetal calf serum (FCS) and 100 μg/ml of hygromycin]. Incubation was carried out overnight under standard conditions (5% CO2, 21% O2, 37° C., moistened). The following morning the cells were incubated with various concentrations of the test substances (0-10 μmol/l) in a hypoxia chamber (1% O2). After 24 h, Bright Glo reagent (Promega, Wisconsin, USA) was added in accordance with the manufacturer's instructions, and after 5 min the luminescence was measured. Cells which were incubated under normoxia served as background controls.
The IC50 values from this assay for representative working examples are listed in the following table (in same cases as means of up to four individual determinations): […]

| Structure (SMILES) | IC50 [nM] |
| --- | --- |
| Cc1cc(/C(F)=C/c2ccc(C(C)(C)C(F)(F)F)cc2)nn1Cc1cccc(C(=O)N2CCCC2)c1 [Example 28, {3-[(3-{(Z)-1-Fluoro-2-[4-(1,1,1-trifluoro-2-methylpropan-2-yl)phenyl]vinyl}-5-methyl-1H-pyrazol-1-yl)methyl]phenyl}(pyrrolidin-1-yl)methanone] | 5 |
| COC(=O)c1cccc(Cn2nc(/C(F)=C/c3ccc([Si](C)(C)C)cc3)cc2C)c1 [Example 23, Methyl 3-[(3-{(Z)-1-fluoro-2-[4-(trimethylsilyl)phenyl]vinyl}-5-methyl-1H-pyrazol-1-yl)methyl]benzoate] | 1 |
| CC(=O)OC1(c2cccc(Cn3nc(/C(F)=C/c4ccc(C5(C(F)(F)F)CC5)cc4)cc3C)c2)CC1 [Example 46, 1-[3-({3-[(Z)-1-Fluoro-2-{4-[1-(trifluoromethyl)cyclopropyl]phenyl}vinyl]-5-methyl-1H-pyrazol-1-yl}methyl)phenyl]cyclopropyl acetate] | 0.7 |
| CNc1ccc(Cn2nc(/C(F)=C/c3ccc(S(F)(F)(F)(F)F)cc3)cc2C)cn1 [Example 91, 5-[(3-{(Z)-1-Fluoro-2-[4-(pentafluoro-λ^6-sulphanyl)phenyl]vinyl}-5-methyl-1H-pyrazol-1-yl)-methyl]-N-methylpyridine-2-amine] | 0.3 |
| Cc1cc(/C(F)=C/c2ccc(C(C)(C)C(F)(F)F)cc2)nn1Cc1cccc(C(F)(F)CO)c1 [Example 62, 2,2-Difluoro-2-{3-[(3-{(Z)-1-fluoro-2-[4-(1,1,1-trifluoro-2-methylpropan-2-yl)phenyl]vinyl}-5-methyl-1H-pyrazol-1-yl)methyl]phenyl}ethanol] | 2.5 |
| Cc1cc(/C(F)=C/c2ccc(C(C)(C)C(F)(F)F)cc2)nn1Cc1cccc(C(=O)N2CCN(C3CC3)CC2)c1 [Example 39, (4-Cyclopropylpiperazin-1-yl) {3-[(3-{(Z)-1-fluoro-2-[4-(1,1,1-trifluoro-2-methylpropan-2-yl)-phenyl]vinyl}-5-methyl-1H-pyrazol-1-yl)methyl]phenyl}methanone] | 2 |
| Cc1cc(/C(F)=C/c2ccc(C3(C(F)(F)F)CC3)cc2)nn1Cc1cccc(C2(CO)CC2)c1 [Example 59, {1-[3-({3-[(Z)-1-Fluoro-2-{4-[1-(trifluoromethyl)cyclopropyl]phenyl}vinyl]-5-methyl-1H-pyrazol-1-yl}methyl)phenyl]cyclopropyl}methanol] | 2 |
| CNc1ccc(Cn2nc(/C(F)=C/c3ccc(C4CCCCC4)cc3)cc2C)cn1 [Example 88, 5-({3-[(Z)-2-(4-Cyclohexylphenyl)-1-fluorovinyl]-5-methyl-1H-pyrazol-1-yl}methyl)-N-methylpyridine-2-amine] | 2 |
| CNc1ccc(Cn2nc(/C(F)=C/c3ccc(N4CC(C)OC(C)C4)nc3)cc2C)cn1 (stereo not shown) [Example 95, 5-[(3-{(Z)-2-[6-(2,6-Dimethylmorpholin-4-yl)pyridin-3-yl]-1-fluorovinyl}-5-methyl-1H-pyrazol-1-yl)methyl]-N-methylpyridine-2-amine] | 0.6 |
| Cc1cc(/C(F)=C/c2ccc(OC(F)(F)F)cc2)nn1Cc1cccc(C(=O)N2CCOCC2)c1 [Example 31, {3-[(3-{(Z)-1-Fluoro-2-[4-(trifluoromethoxy)phenyl]vinyl}-5-methyl-1H-pyrazol-1-yl)methyl]-phenyl}(morpholin-4-yl)methanone] | 3 |
| CCNc1ccc(Cn2nc(/C(F)=C/c3ccc(C(O)(C(F)(F)F)C(F)(F)F)cc3)cc2C)cn1 [Example 97, 2-{4-[(Z)-2-(1-{[6-(Ethylamino)pyridin-3-yl]methyl}-5-methyl-1H-pyrazol-3-yl)-2-fluorovinyl]-phenyl}-1,1,1,3,3,3-hexafluoropropan-2-ol] | 20 |
| Cc1cc(/C(F)=C/c2ccc(C(C)(C)C(F)(F)F)cc2)nn1Cc1cccc(N2CC(O)C2)c1 [Example 16, 1-{3-[(3-{(Z)-1-Fluoro-2-[4-(1,1,1-trifluoro-2-methylpropan-2-yl)phenyl]vinyl}-5-methyl-1H-pyrazol-1-yl)methyl]phenyl}azetidin-3-ol] | 0.5 |
| CCNC(=O)C(C)(C)Sc1ccc(/C=C(\F)c2cc(C)n(Cc3ccc(NC)nc3)n2)cc1 [Example 92, N-Ethyl-2-({4-[(Z)-2-fluoro-2-(5-methyl-1-{[6-(methylamino)pyridin-3-yl]methyl}-1H-pyrazol-3-yl)vinyl]phenyl}sulphanyl)-2-methylpropanamide] | 5 |
| Cc1cc(/C(F)=C/c2ccc(OC(F)(F)F)cc2)nn1Cc1cccc(N2CC(O)C2)c1 [Example 15, 1-{3-[(3-{(Z)-1-Fluoro-2-[4-(trifluoromethoxy)phenyl]vinyl}-5-methyl-1H-pyrazol-1-yl)methyl]phenyl}azetidin-3-ol] | 2 |
| CNc1ccc(Cn2nc(/C(F)=C/c3ccc(C(C)C)cc3)cc2C)cn1 [Example 89, 5-({3-[(Z)-1-Fluoro-2-(4-isopropylphenyl)vinyl]-5-methyl-1H-pyrazol-1-yl}methyl)-N-methyl-pyridine-2-amine] | 2 |
| Cc1ccc(Cn2nc(/C(F)=C/c3ccc(N4CC(C)OC(C)C4)nc3)cc2C)cc1 (stereo not shown) [Example 4, 4-(5-{(Z)-2-Fluoro-2-[5-methyl-1-(4-methylbenzyl)-1H-pyrazol-3-yl]vinyl}pyridin-2-yl)-2,6-dimethylmorpholine] | 2 |
| Cc1cc(/C(F)=C/c2ccc(SC(F)(F)F)cc2)nn1Cc1cccc(C(=O)N2CCN(C3CC3)CC2)c1 [Example 38, (4-Cyclopropylpiperazin-1-yl)[3-({3-[(Z)-1-fluoro-2-{4-[(trifluoromethyl)sulphanyl]phenyl}vinyl]-5-methyl-1H-pyrazol-1-yl}methyl)phenyl]methanone] | 4 |
| Cc1cc(/C(F)=C/c2ccc(C(C)(C)C(F)(F)F)cc2)nn1Cc1ccnc(N2CCN(C3CC3)CC2)c1 [Example 104, 1-Cyclopropyl-4-{4-[(3-{(Z)-1-fluoro-2-[4-(1,1,1-trifluoro-2-methylpropan-2-yl)phenyl]vinyl}-5-methyl-1H-pyrazol-1-yl)methyl]pyridin-2-yl}piperazine] | 0.4 |
| CNc1ccc(Cn2nc(/C(F)=C/c3ccc(SC(F)(F)F)cc3)cc2C)cn1 [Example 82, 5-({3-[(Z)-1-Fluoro-2-{4-[(trifluoromethyl)sulphanyl]phenyl}vinyl]-5-methyl-1H-pyrazol-1-yl}-methyl)-N-methylpyridine-2-amine] | 1 |
| Cc1cc(/C(F)=C/c2ccc(C3(C(F)(F)F)CC3)cc2)nn1Cc1cccc(C(=O)N2CCC(O)CC2)c1 [Example 35, [3-({3-[(Z)-1-Fluoro-2-{4-[1-(trifluoromethyl)cyclopropyl]phenyl}vinyl]-5-methyl-1H-pyrazol-1-yl}methyl)phenyl](4-hydroxypiperidin-1-yl)methanone] | 5 |
| Cc1cc(/C(F)=C/c2ccc(S(F)(F)(F)(F)F)cc2)nn1Cc1ccnc(N2CCN(C3CC3)CC2)c1 [Example 107, 1-Cyclopropyl-4-{4-[(3-{(Z)-1-fluoro-2-[4-(pentafluoro-λ^6-sulphanyl)phenyl]vinyl}-5-methyl-1H-pyrazol-1-yl)methyl]pyridin-2-yl}piperazine] | 0.3 |
| CCNc1ccc(Cn2nc(/C(F)=C/c3ccc(C(C)(C)C(F)(F)F)cc3)cc2C)cn1 [Example 96, N-Ethyl-5-[(3-{(Z)-1-fluoro-2-[4-(1,1,1-trifluoro-2-methylpropan-2-yl)phenyl]vinyl}-5-methyl-1H-pyrazol-1-yl)methyl]pyridine-2-amine] | 1 |
| Cc1cc(/C(F)=C/c2ccc([Si](C)(C)C)cc2)nn1Cc1ccnc(N2CCN(C3CC3)CC2)c1 [Example 106, 1-Cyclopropyl-4-{4-[(3-{(Z)-1-fluoro-2-[4-(trimethylsilyl)phenyl]vinyl}-5-methyl-1H-pyrazol-1-yl)methyl]pyridin-2-yl}piperazine] | 0.5 |
| Cc1cc(/C(F)=C/c2ccc(C3(C(F)(F)F)CC3)cc2)nn1Cc1cccc(N2CCC(C#N)CC2)c1 [Example 11, 1-[3-({3-[(Z)-1-Fluoro-2-{4-[1-(trifluoromethyl)cyclopropyl]phenyl}vinyl]-5-methyl-1H-pyrazol-1-yl}methyl)phenyl]piperidine-4-carbonitrile] | 0.2 |
| Cc1cc(/C(F)=C/c2ccc(C(C)(C)C(F)(F)F)c(F)c2)nn1Cc1cccc(C2(O)CC2)c1 [Example 50, 1-{3-[(3-{(Z)-1-Fluoro-2-[3-fluoro-4-(1,1,1-trifluoro-2-methylpropan-2-yl)phenyl]vinyl}-5-methyl-1H-pyrazol-1-yl)methyl]phenyl}cyclopropanol] | 1 |
| Cc1cc(/C(F)=C/c2ccc(C3(C(F)(F)F)CC3)cc2)nn1Cc1cccc(C(F)(F)CO)c1 [Example 63, 2,2-Difluoro-2-[3-({3-[(Z)-1-fluoro-2-{4-[1-(trifluoromethyl)cyclopropyl]phenyl}vinyl]-5-methyl-1H-pyrazol-1-yl}methyl)phenyl]ethanol] | 3 |
| Cc1cc(/C(F)=C/c2ccc(C3(C(F)(F)F)CC3)cc2)nn1Cc1cccc(C2(O)CC2)c1 [Example 51, 1-[3-({3-[(Z)-1-Fluoro-2-{4-[1-(trifluoromethyl)cyclopropyl]phenyl}vinyl]-5-methyl-1H-pyrazol-1-yl}methyl)phenyl]cyclopropanol] | 1 |
| Cc1cc(/C(F)=C/c2ccc(OC(F)(F)F)cc2)nn1Cc1cccc(C2(CO)CC2)c1 [Example 55, (1-{3-[(3-{(Z)-1-Fluoro-2-[4-(trifluoromethoxy)phenyl]vinyl}-5-methyl-1H-pyrazol-1-yl)methyl]-phenyl}cyclopropyl)methanol] | 4 |
